# Test results taken from PubChem BioAssay (NCI).
#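 All cell lines were grown in 96-well plates and treated with compound for 48 hours. Here, GI50 denotes the concentration required for 50% inhibition of growth. TGI: total growth inhibition.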
# What was measured:
# Assay in all cases: NCI anticancer screen, dose series, 48 h
# LXFL 529 NSCLC = system: LXFL 529 NSCLC
# NCI-H460 lung = system: NCI-H460 lung
# DMS 273 small cell lung = system: DMS 273 small cell lung
# DMS 114 small cell lung = system: DMS 114 small cell lung
# ACHN renal = system: ACHN renal
# OVCAR-3 ovarian = system: OVCAR-3 ovarian
# HT29 colon = system: HT29 colon
# SK-OV-3 ovarian = system: SK-OV-3 ovarian
# CCRF-CEM leukemia = system: CCRF-CEM leukemia
# CAKI-1 renal = system: CAKI-1 renal
# M19-MEL melanoma = system: M19-MEL melanoma
# T-47D breast = system: T-47D breast
SMILES,TGI (LXFL 529 NSCLC) [µM],TGI (NCI-H460 lung) [µM],TGI (DMS 273 small cell lung) [µM],TGI (DMS 114 small cell lung) [µM],TGI (ACHN renal) [µM],TGI (OVCAR-3 ovarian) [µM],TGI (HT29 colon) [µM],TGI (SK-OV-3 ovarian) [µM],TGI (CCRF-CEM leukemia) [µM],TGI (CAKI-1 renal) [µM],TGI (M19-MEL melanoma) [µM],TGI (T-47D breast) [µM],GI50 (NCI-H460 lung) [µM],GI50 (ACHN renal) [µM],GI50 (T-47D breast) [µM],GI50 (OVCAR-3 ovarian) [µM],GI50 (HT29 colon) [µM],GI50 (SK-OV-3 ovarian) [µM],GI50 (CCRF-CEM leukemia) [µM],GI50 (CAKI-1 renal) [µM]
N#Cc1ccccc1/C=N/O,> 100,> 100,> 55.6,> 100,> 100,> 100,> 100,> 100,> 85,> 100,> 100,,,,,,,,,
[O-][N+]1=C(c2ccccc2)COc2ccccc21,> 100,> 100,> 100,> 100,> 100,> 100,> 100,> 100,> 100,> 100,> 100,,,,,,,,,
Cc1ccc(S(=O)(=O)NC(=O)Nc2nc(Cl)cc(Cl)n2)cc1,> 100,> 100,,> 100,> 100,> 100,,> 100,> 100,> 100,> 100,,,,,,,,,
C/C(CC(=O)Nc1ccc([N+](=O)[O-])cc1)=N/N=C(N)N,> 100,> 100,> 100,> 100,> 100,> 100,> 100,> 100,> 100,,> 100,,,,,,,,,
COC(=O)c1cc(O)ccc1NC(=O)c1ccc(O)cc1,> 100,> 100,,> 100,> 100,> 100,> 100,> 100,> 100,> 100,> 100,,,,,,,,,
Cc1cc2c(=O)cc(-c3ccc(C(=O)O)cc3)oc2c(C(=O)O)c1C,> 100,> 100,> 100,> 100,> 100,> 100,> 100,> 100,> 100,> 100,> 100,,,,,,,,,
O=C1CC23CC(=O)CC2(C1)c1ccccc1C3=O (stereo not given),> 100,> 100,> 100,> 100,> 100,> 100,> 100,> 100,> 100,> 100,> 100,,,,,,,,,
O=C(CCc1cc(-c2ccco2)n(-c2ccc([N+](=O)[O-])cc2[N+](=O)[O-])n1)Nc1ccccc1,> 100,> 100,> 100,> 100,> 100,,> 100,> 100,> 100,> 100,> 100,,,,,,,,,
C=C1CCC2C(C)(CO)C(O)CCC2(C)C1CC(O)C1=CCOC1=O (stereo not given),> 100,> 100,> 100,> 100,> 100,58.9,> 100,> 100,84.3,> 100,> 100,,,,,,,,,
COC(=O)/C(Cl)=C1/CC1COCc1ccccc1 (stereo not given),31.1,> 100,54.9,81.2,81.6,52.5,58,> 100,43.5,52.4,93.2,,,,,,,,,
NC(CCCNCc1ccccc1O)C(=O)O (stereo not given),> 100,> 100,> 100,> 100,> 100,> 100,> 100,> 100,> 100,> 100,> 100,,,,,,,,,
O=S(=O)(c1ccccc1)C1CN(Cc2ccccc2)CCN(Cc2ccccc2)C1,> 100,> 100,> 100,> 100,> 100,> 95.8,> 100,> 100,> 100,98.9,> 100,> 100,,,,,,,,
O=[N+]([O-])c1ccc(C2N3CCCCC3[C@@H]3c4[nH]c5ccccc5c4CCN23)cc1 (stereo not given in full),> 100,40.9,> 100,22,43.8,38.6,16,> 100,64.4,> 100,24.4,,,,,,,,,
C/C(CN1C(=O)c2ccccc2C1=O)=N\NS(C)(=O)=O,> 100,> 100,> 100,> 100,> 100,> 100,> 100,> 100,> 100,> 100,> 100,,,,,,,,,
O=CN/C=C/c1ccccc1O,> 100,> 100,> 100,> 100,> 100,> 100,> 100,> 100,> 100,> 100,> 100,,,,,,,,,
O=C(Cc1nc2ccccc2s1)NC12CC3CC(CC(C3)C1)C2,> 100,> 100,> 100,,> 100,,> 100,> 100,> 100,> 100,> 100,,,,,,,,,
COC(=O)[C@]1(C)CCC[C@]2(C)C3CC4OOC3(C=C4C(C)C)CCC21 (stereo not given in full),27.2,25.7,34.5,28,31.2,76.6,29.4,34.4,14,62.3,,,,,,,,,,
Cc1cc(NC(=O)C(=O)Cc2nc3ccccc3s2)ccc1Cl,> 100,> 100,> 100,> 100,> 100,> 100,> 100,> 100,> 100,> 100,> 100,> 100,,,,,,,,
CC(C)(C)C1CCN(C(=O)c2ccccc2)CC1,> 100,> 100,> 100,98.8,> 100,> 100,> 100,> 100,> 100,,> 100,,,,,,,,,
CCCNNC(=O)c1ccc(CNC(=O)/C=C/c2ccccc2)cc1,,> 100,,,0.592,1.8,> 100,1.47,> 100,0.733,,0.715,0.286,0.143,0.13,0.246,0.12,0.134,0.115,0.174
Clc1cccc(Cc2cn3cc(-c4ccccc4)nc3s2)c1,,> 100,,,> 100,> 100,> 100,> 100,> 100,> 100,,> 100,3.31,2.77,2.33,9.07,11.8,39.6,43,2.68
CSc1ccc2c(c1)C(=O)c1c-2n(CCCN=[N+]=[N-])c(=O)c2cc([N+](=O)[O-])ccc12,,> 100,,,> 100,> 89.5,> 100,> 30.5,10.9,> 66.5,,> 100,0.322,0.528,4.58,8.87,4.3,0.861,0.239,2.33
O=c1[nH]c(C2CCCCC2)nc2cc(Cl)ccc12,> 100,,> 100,> 100,> 100,> 100,> 100,> 100,,> 100,> 100,,,,,,,,,
COc1cc2c3c(n(CCCN4CCOCC4)c(=O)c2cc1OC)-c1cc2c(cc1C3=O)OCO2,,> 100,,,> 100,> 50.7,> 67,> 100,3.34,14.6,,> 100,0.277,0.5,> 50.8,15.6,5.62,> 77.6,0.0934,0.52
Cc1ccccc1C(C#N)/C(=N/NC(=O)C(=O)NN)C(=O)Nc1cccc(C(F)(F)F)c1 (stereo not given),> 100,> 100,> 100,> 100,> 100,> 100,> 100,,> 100,> 100,> 100,,,,,,,,,
COC(=O)C1CCc2nnc(-c3cccnc3)n21 (stereo not given),> 100,> 100,> 100,> 100,> 100,> 100,,> 100,> 100,> 100,> 100,,,,,,,,,
